Source: patent US20110124842A1 (priority 2003, published 2011)

Columns and labels:
Format in all cases: cell-based
[1] = test system: HIV-1JR-FL; assay: Peptide effect on neutralization by antibodies and sera, pseudotyped virus, U87.CD4.CCR5 cells; settings: FIG. 50
Method: FIG. 50 represents graphs showing the effect of peptide […]-NH2 (SEQ ID NO: 8) on neutralization of HIV-1 by polyclonal antibodies and sera. HIV-1JR-FL, pseudotyped using the pNL4-3.Luc reporter plasmid, was assayed for neutralization using pooled polyclonal IgG from HIV-1 seropositive individuals (HIVIG), broadly neutralizing serum from the FDA2 individual and normal human serum spiked with 4E10 at 200 μg/ml in the undiluted serum. Neutralization assays were performed using U87.CD4.CCR5 cells as target cells, in the presence (open symbols) or absence (closed symbols) of peptide […]-NH2 (SEQ ID NO: 8). Note that the zero point in serum dilution corresponds to only 30 μg/ml 94-1 being present.
(§1) To further investigate the interaction of peptide analogs and 4E10, the inhibitory effect of the best analogs on neutralization by 4E10 was assessed. Neutralization assays were performed in two different formats. In the first, replication competent HIV-1SF162 was assayed for neutralization using TZM-b1 cells as indicator cells (Wei, X., 2002). Alternatively, a pseudotype assay was used in which recombinant HIV-1JR-CSF virions, competent for a single round of infection, were generated using the luciferase reporter plasmid pNL4-3.Luc.R-E-, as described previously (Connor, R. I., 1995; Zwick, M. B., 2003), and the pseudovirus assayed for neutralization using U87.CD4.CCR5 cells as target cells (Bjorndal, A., 1997). In all cases, the competitor peptide ([…]-NH2; SEQ ID NO: 8) and IgG 4E10 were pre-incubated for 30 minutes at 37° C. (60 μg/ml), then the mixture was added (1:1 by volume) to HIV-1, and the resulting mixture incubated for a further hour at 37° C. The mixture of peptide, 4E10, and HIV-1 was then added (1:1 by volume) to the target cells, and the assay developed using luciferase reagent (Promega) following 48-72 hour incubation at 37° C. The degree of virus neutralization was determined as a percentage reduction of viral infectivity against an Ab-free control. All experiments were performed in triplicate and repeated at least twice with similar results.

[2] = test system: HIV-1 JR-CSF; settings: JRCSF; peptide at 30 μg/ml; FIG. 49
Method: (§2) FIG. 49 is a bar graph showing the ability of peptide […]-NH2 (SEQ ID NO: 8) to block neutralization of HIV-1 by 4E10. Replication competent HIV-1 (SF 162 and JR-CSF), produced in human PBMCs, were assayed for neutralization by 4E10 (100 μg/ml) in TZM-b1 cells, in the presence (white bars) or absence (black bars) of an excess of peptide.
as §1, with “(60 μg/ml), then the mixture was added (1:1 by volume) to HIV-1, and the resulting mixture incubated for a further hour at 37° C. The mixture of peptide, 4E10, and HIV-1 was then added (1:1 by volume) to the target cells, and the assay developed using luciferase reagent (Promega) following 48-72 hour incubation at 37° C.” left out, “All experiments were performed in triplicate and repeated at least twice with similar results.” left out

[3] = test system: HIV-1SF162; settings: peptide at 30 μg/ml, FIG. 49
Method: as §2
as §1, with “(60 μg/ml), then the mixture was added (1:1 by volume) to HIV-1, and the resulting mixture incubated for a further hour at 37° C. The mixture of peptide, 4E10, and HIV-1 was then added (1:1 by volume) to the target cells, and the assay developed using luciferase reagent (Promega) following 48-72 hour incubation at 37° C.” left out, “All experiments were performed in triplicate and repeated at least twice with similar results.” left out

**Q.** With “NWFDITNWLWYIKKKK [Peptide 94-1, NWFDITNWLWYIKKKK-NH2]” as the sequence, how does the “block of neutralization by normal sera spiked with 4E10” value [1] read?
**A.** blocks neutralization

**Q.** And the “block of neutralization by the reference sera FDA2” value [1]?
**A.** does not block neutralization

**Q.** What about the “block of neutralization by polyclonal IgG from HIV-1 infected donors” value ([1]; HIVIG) of the same sequence?
**A.** does not block neutralization

**Q.** And the “block of neutralization by 4E10” value [2]?
**A.** could block the neutralization

**Q.** What about the “block of neutralization by 4E10” value [3] of the same sequence?
**A.** could block the neutralization
